According to PubChem BioAssay (NCI):
Several values for one entry are separate records, joined by “and”; a condition that tells them apart may be missing. Equal entries are not always repeated.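 Five compound concentrations were applied to cells in 96-well plates for 48 hours; endpoints were derived by simple linear interpolation of the resulting dose-response curve. GI50 is the concentration that inhibits growth by half. TGI marks complete inhibition of growth.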

How the values were obtained:
Assay in all cases: NCI anticancer screen, dose series, 48 h
HL-60(TB) leukemia = tested on: HL-60(TB) leukemia
UACC-257 melanoma = tested on: UACC-257 melanoma
HCC-2998 colon = tested on: HCC-2998 colon
KM12 colon = tested on: KM12 colon
HOP-92 NSCLC = tested on: HOP-92 NSCLC
SF-539 CNS = tested on: SF-539 CNS
SN12C renal = tested on: SN12C renal
HT29 colon = tested on: HT29 colon
HS 578T breast = tested on: HS 578T breast
HCT-15 colon = tested on: HCT-15 colon

Row | SMILES | GI50 (HL-60(TB) leukemia) | TGI (HL-60(TB) leukemia) | GI50 (UACC-257 melanoma) | TGI (UACC-257 melanoma) | GI50 (HCC-2998 colon) | TGI (HCC-2998 colon) | GI50 (KM12 colon) | TGI (KM12 colon) | GI50 (HOP-92 NSCLC) | TGI (HOP-92 NSCLC) | GI50 (SF-539 CNS) | TGI (SF-539 CNS) | GI50 (SN12C renal) | TGI (SN12C renal) | GI50 (HT29 colon) | TGI (HT29 colon) | GI50 (HS 578T breast) | TGI (HS 578T breast) | GI50 (HCT-15 colon) | TGI (HCT-15 colon)
1 | COc1cc2c(cc1OC)-c1c(c3ccc([N+](=O)[O-])cc3c(=O)n1CCCN)C2=O | 1.28 µM | 3.38 µM | 6.79 µM | 14.6 µM | 0.0818 µM | 0.759 µM | 2.1 µM | 4.92 µM | 7.29 µM | 16.5 µM | 0.124 µM | 1.29 µM | 0.695 µM | 6.82 µM | 0.531 µM | 1.12 µM | 9.12 µM | 20.2 µM | 1.3 µM | 3.66 µM
2 | CCN1CCC(CC(=O)Nc2n[nH]c3nc(-c4cccs4)c(Br)cc23)CC1 | 7.31 µM | 14.8 µM | 5.58 µM | 10.8 µM | 12 µM | > 25 µM | 5.81 µM | 13.8 µM | > 24.1 µM | > 25 µM | 9.22 µM | > 22.2 µM | 9.51 µM | > 25 µM | 4.47 µM | 11.1 µM | 12.3 µM | > 25 µM | 6.89 µM | > 20.6 µM
3 | O=C(/C=C\c1ccc2ccccc2n1)c1cc(Cl)ccc1O | 3.32 µM | 11.3 µM | 24.3 µM | 63.2 µM | 14.6 µM | 28.3 µM | 8.71 µM | 24.5 µM | 1.82 µM | 9.35 µM | 7.15 µM | 23.2 µM | 9.58 µM | 24.4 µM | 4.2 µM | 31.5 µM | 16.2 µM | 62.6 µM | 2.43 µM | 8.86 µM
4 | C[C@@H]1COC(Nc2ccc3ncnc(Nc4ccc(OCc5nccs5)c(Cl)c4)c3c2)=N1 | 3.7 µM and 4.2 µM | > 100 µM | > 10 µM and 5.59 µM | > 10 µM and 25.6 µM | > 10 µM and 11.9 µM | > 10 µM and 39.6 µM | 4.38 µM and 4.14 µM | > 10 µM and 33.8 µM | 0.633 µM and 0.782 µM | 8.43 µM and 5.68 µM | > 10 µM and 11.9 µM | > 10 µM and 29.1 µM | 6.15 µM and 4.86 µM | > 10 µM and 26 µM | 5.04 µM and 4.33 µM | > 10 µM and 17.8 µM | 5.23 µM and 5.24 µM | > 10 µM and 48.9 µM | 4.07 µM and 5.32 µM | > 10 µM and 25.6 µM
5 | COc1ccc(-n2c3c(c4c(CN(C)C)c(O)c(C)cc42)CCc2ccccc2C3=O)cc1 | 12.3 µM | 43.6 µM | 78.1 µM | > 100 µM | 23.4 µM | 67.8 µM | 21.1 µM | 63.9 µM | 41.9 µM | > 100 µM | 26.9 µM | > 100 µM | 29.6 µM | > 100 µM | > 100 µM | > 100 µM | 48.2 µM | > 100 µM | 28.7 µM | > 100 µM
6 | COc1ccc(-c2nc3sc4c(c3c(=O)[nH]2)CCCC4)c2ccccc12 | 0.301 µM | 2.04 µM | 1.56 µM and 4.95 µM | > 100 µM | – | 79.1 µM | – | > 100 µM | 0.0957 µM and 0.599 µM | 2.37 µM and 7.9 µM | 0.211 µM and 0.0213 µM | 0.544 µM and 0.0746 µM | 0.514 µM and 0.0702 µM | > 100 µM | – | – | – | 0.093 µM | – | > 100 µM
7 | COc1ccc2c(c1)[C@@]1(C)CCC3c4ccc(O)cc4CCC3C1C2 (stereo partly specified) | 18.1 µM | 39.1 µM | 17.7 µM | 33.7 µM | 18 µM | 32.3 µM | 15.4 µM | 36.8 µM | 17.2 µM | 33.9 µM | 20.3 µM | 38.9 µM | 16.8 µM | 32 µM | 3.96 µM | 17.5 µM | 19.4 µM | 39.3 µM | 12.3 µM | 28 µM
8 | CO/C(=N\N=C\c1cccc(C(F)(F)F)c1)c1ccncc1 | 2.45 µM | 7.77 µM and 18 µM | – | > 100 µM | – | 22.5 µM | – | > 100 µM | – | > 100 µM | – | 37.1 µM | 16.7 µM | > 100 µM | 3.47 µM | 19 µM | – | 38.7 µM | 4.54 µM | 68.2 µM
9 | Cc1ccc2nc(N/N=C/c3cccc(C)n3)cc(C)c2c1 | – | > 100 µM | – | 31.8 µM | – | 27.6 µM | – | 27.7 µM | – | 37.2 µM | – | 38.3 µM | – | 34.2 µM | – | 27.3 µM | – | 50.9 µM | – | 52.7 µM
10 | O=C(NC1(C(=O)O)CC1c1ccccc1)c1ccccc1 (stereo unspecified) | – | > 100 µM | – | > 100 µM | – | > 100 µM | – | > 100 µM | – | > 100 µM | – | > 100 µM | – | > 100 µM | – | > 100 µM | – | > 100 µM | – | > 100 µM
11 | N=C(N)c1ccc(-c2ccc(-c3ccc(F)cc3)o2)o1 | 1.8 µM | 4.4 µM | 1.98 µM | 3.69 µM | 1.37 µM | 2.81 µM | 1.44 µM | 3.41 µM | 1.21 µM | 2.95 µM | 1.63 µM | 3.08 µM | 1.8 µM | 3.65 µM | 0.606 µM | 1.94 µM | 1.95 µM | 4.82 µM | 0.631 µM | 2.08 µM
12 | COc1cc(/C=C2\C(=O)Nc3ccccc32)cc(OC)c1OC | 8.15 µM | > 100 µM | 8.81 µM | 54 µM | 12.4 µM | 32.8 µM | 11.7 µM | 98 µM | 20.8 µM | 71.7 µM | 27.9 µM | > 100 µM | 20.7 µM | > 100 µM | 19.8 µM | > 100 µM | 28.7 µM | > 100 µM | 11.6 µM | > 100 µM
13 | O=[N+]([O-])/C=C/c1ccc([N+](=O)[O-])cc1 | 5.38 µM | 54.8 µM | 1.88 µM | 5.01 µM | 1.75 µM | 3.23 µM | 2.25 µM | 4.71 µM | 13 µM | 28.9 µM | 2.46 µM | 4.89 µM | 2.37 µM | 6.83 µM | 2.07 µM | 5 µM | 2.64 µM | 9.87 µM | 2.02 µM | 5.58 µM
14 | CCOC(=O)/C(=C\c1ccc(F)cc1)C(C)=O | – | 53.2 µM | – | 44.7 µM | – | 26.6 µM | – | 69 µM | – | 44.3 µM | – | > 100 µM | – | > 100 µM | – | > 100 µM | – | > 100 µM | – | 44.2 µM
15 | Cc1cc(NC(=O)NC(=O)c2ccccc2NC(=O)CN)ccc1Oc1ncc(Br)cn1 | 0.111 µM and 0.0249 µM | 0.865 µM and 0.175 µM | – | 38.4 µM | 0.354 µM | 18 µM and 2.68 µM | 0.146 µM | 34.5 µM and > 100 µM | – | 32.7 µM | 0.0762 µM and 0.0509 µM | 0.351 µM and 0.481 µM | 0.508 µM | 38 µM and 49.1 µM | 0.0653 µM | – | – | 4.69 µM | – | 42.2 µM
16 | Cc1ccccc1C(C(=O)NC1CCCCC1)N(C(=O)Cn1ccnc1C)c1cccc(F)c1 (stereo unspecified) | > 100 µM | > 100 µM | > 100 µM | > 100 µM | > 100 µM | > 100 µM | > 100 µM | > 100 µM | 20 µM | > 100 µM | 33.1 µM | > 66.5 µM | > 53.4 µM | > 100 µM | > 100 µM | > 100 µM | 28.2 µM | > 100 µM | > 100 µM | > 100 µM
17 | COc1ccc2[nH]cc(-c3nc(-c4c[nH]c5ccncc45)cs3)c2c1 | 1.51 µM | 3.47 µM | 1.93 µM | 3.51 µM | 1.87 µM | 3.32 µM | 1.76 µM | 3.75 µM | 1.79 µM | 3.75 µM | 1.64 µM | 3.09 µM | 1.83 µM | 3.61 µM | 2.23 µM | 4.87 µM | 2.15 µM | 4.95 µM | 1.95 µM | 4.29 µM
18 | N/C(=N\c1nc2ccccc2s1)NC(=O)Nc1cccc2ccccc12 | 0.283 µM | 0.968 µM | > 100 µM | > 100 µM | 0.741 µM | > 100 µM | – | – | 1.81 µM | > 47.3 µM | 0.242 µM | 0.768 µM | 0.861 µM | > 100 µM | 0.19 µM | > 100 µM | 0.302 µM | 5.41 µM | 0.126 µM | > 100 µM
19 | Cc1ccc(Oc2nc3ccccc3cc2-c2nnc(Cn3c(COc4ccccc4)nc4ccccc43)o2)cc1 | 2.85 µM | 7.88 µM | 3.28 µM | 14.9 µM | 4.4 µM | 15.3 µM | 2.85 µM | 11.8 µM | 1.27 µM | 5.37 µM | – | – | 2.76 µM | 11.9 µM | 2.02 µM | 4.43 µM | 4.39 µM | 33.8 µM | 2.14 µM | 7.69 µM
20 | COc1cc2c(cc1OCCCN1CCN(c3cc(=O)oc4c(C)c(OC)ccc34)CC1)N=C[C@@H]1CCCN1C2=O | 0.456 µM | 3.83 µM | – | – | 1.44 µM | 2.89 µM | 1.65 µM | 9.11 µM | 0.329 µM | 1.81 µM | 1.73 µM | 7.97 µM | 1.6 µM | 6.51 µM | 1.16 µM | – | 2.35 µM | 15.6 µM | 3.06 µM | > 37.6 µM
